What all share (assay): selective drug sensitivity score (sDSS, relative to normal bone marrow) (sDSS (score)); higher = more potent and effective on the cell line relative to normal bone marrow cells
What all share (conditions): 72 h

Assay [1] has as its system MOLT-16.
Assay [2] has as its system RPMI-8402.
Assay [3] concerns PEER.
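Also: ALL cell lines in 384-well plates, five doses spanning 10,000-fold, each plate scaled between vehicle and 100 µmol/L benzalkonium chloride controls, sDSS an adapted area-under-curve metric.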

For `Cc1sc2c(c1C)C(c1ccc(Cl)cc1)=N[C@@H](CC(=O)Nc1ccc(OCCOCCOCCOCCNc3cccc4c3C(=O)N(C3CCC(=O)NC3=O)C4=O)cc1)c1nnc(C)n1-2` (some centres not stated) [ARV-825] (top concentration 300 nM), the “selective drug sensitivity score” value in assay [1] was 1.44; in assay [2] it was 1.04; in assay [3], -0.46.
On the same counts, the results for `CC1=C(/C=C/C(C)=C/C=C/C(C)=C/C(=O)O)C(C)(C)CCC1` [Tretinoin] (top concentration 10000 nM) are -2.4, -2.4 and -2.4.
With `COc1cc(OC)cc(N(CCNC(C)C)c2ccc3ncc(-c4cnn(C)c4)nc3c2)c1` [Erdafitinib] (top concentration 1000 nM), the “selective drug sensitivity score” value is -0.56 in assay [1], -0.56 in assay [2] and -0.36 in assay [3].
Turning to `O=C(O)c1ccc(O)c2ncccc12` [IOX-1] (top concentration 100000 nM), the entries for the “selective drug sensitivity score” value in assay [1], in assay [2] and in assay [3] were 3.74, 2.64 and 4.34, respectively.

These data come from the supplement of paper PMC8967900.
